Reference: paper PMC9268591, “Anti-Inflammatory, Analgesic and Antioxidant Potential of New (2S,3S)-2-(4-isopropylbenzyl)-2-methyl-4-nitro-3-phenylbutanals and Their Corresponding Carboxylic Acids through In Vitro, In Silico and In Vivo Studies” (Molecules, 2022)

Legend:
[1] = ABTS free radical scavenging assay
Method: The total antioxidant activity of test compound (HBH) was estimated using the 2, 2-azinobis [3-ethylbenzthiazoline]-6-sulfonic acid (ABTS). The 100 mL of ABTS solution (7 mM) was added to 100 mL of potassium persulfate ([…], 2.45 mM) solution, mixed, and kept in the dark for 12 h to generate free radicals. […]. Gallic acid at 2 mg/2 mL of water was used as a standard drug. Likewise, for the test sample, different concentrations (1000–62.5 μg/mL) of the […] were made for absorbance measurements at the same wavelength. The 300 μL of each test solution was added to 3 mL of ABTS solution to measure the absorbance at 745 nm through a UV-visible spectrophotometer. A similar volume of each standard solution was taken to determine the absorbance at the same wavelength. The ABTS percent scavenging potential was calculated via the above formula [45].

COX-2 = target: T1, COX-2 (Homo sapiens, UniProt P35354); assay: Cyclooxygenase (COX-2) inhibition assay; type: biochemical; details: for SI (calculated selectivity index): COX-2 selectivity over COX-1; for IC50: read-out: IC50 ± SEM COX-2
T1 construct: purchased Sigma Aldrich Germany C0858
T1 sequence (P35354 18-604): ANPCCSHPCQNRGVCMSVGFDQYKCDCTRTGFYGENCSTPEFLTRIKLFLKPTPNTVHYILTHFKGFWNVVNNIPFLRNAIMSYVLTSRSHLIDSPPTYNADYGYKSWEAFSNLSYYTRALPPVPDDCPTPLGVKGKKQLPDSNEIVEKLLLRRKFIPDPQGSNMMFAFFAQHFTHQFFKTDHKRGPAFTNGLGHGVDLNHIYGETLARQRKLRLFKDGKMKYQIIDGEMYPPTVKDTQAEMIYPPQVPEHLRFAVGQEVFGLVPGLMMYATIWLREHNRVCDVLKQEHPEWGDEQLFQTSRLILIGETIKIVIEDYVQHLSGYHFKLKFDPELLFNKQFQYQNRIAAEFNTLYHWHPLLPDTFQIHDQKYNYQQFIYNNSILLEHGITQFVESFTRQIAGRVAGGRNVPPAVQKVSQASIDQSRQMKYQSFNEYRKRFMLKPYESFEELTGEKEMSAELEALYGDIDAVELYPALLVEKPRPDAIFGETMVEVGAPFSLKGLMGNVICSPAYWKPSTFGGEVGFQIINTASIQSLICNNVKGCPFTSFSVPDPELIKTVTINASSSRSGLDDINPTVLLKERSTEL
Method: (§1) The COX-1 and 2 enzymes’ inhibitions assays on the synthesized compounds were carried out as per the standard reported method. Initially, the respective enzyme solution was prepared in a concentration of 300 units/mL. The enzyme activation was started with keeping 10 µL of enzyme solution in the cold for up to 10 min. To this enzyme solution was added the substrate solution in HCl (0.1 M Trish buffer with pH of 8.0). The co-factor 50 µL solution contained TMPD (N,N,N,N-tetramethyl-p-phenylenediamine dihydrochloride, 0.24 mM), hematin (1 mM) and glutathione (0.9 mM). […] The reaction was initiated by adding arachidonic acid (20 µL, 30 mM). The overall solution was incubated for five minutes. Afterwards, the absorbance was recorded on a UV-visible instrument at 570 nm. From the absorbance value of every sample, the percentage inhibition was calculated as per the standard method.
Cyclooxygenase (COX-2) was acquired from human recombinant (Catalog No:C0858) and […]
co-factor substances in this study like N, N_, N_-tetramethyl-p-phenylenediamine […]
91- 7, GmbH USA). these all were purchased from Sigma Aldrich Germany. Buffer solution containing (KH2PO4 & K2HPO4), was of best quality with high purity. […]
was purchased from Pfizer Pharmaceutical and Libra (Pvt.) limited . Tramadol, Diclofenac was purchased from Alliance Pharmaceutical Pakistan.

5-LOX = target: T2, 5-LOX (Homo sapiens, UniProt P09917); assay: 5-Lipoxygenase (5-LOX) inhibition assay; type: biochemical; details: read-out: 5LOX IC50 ± SEM
T2 construct: purchased Sigma Aldrich Germany 437996
T2 sequence (P09917 1-674): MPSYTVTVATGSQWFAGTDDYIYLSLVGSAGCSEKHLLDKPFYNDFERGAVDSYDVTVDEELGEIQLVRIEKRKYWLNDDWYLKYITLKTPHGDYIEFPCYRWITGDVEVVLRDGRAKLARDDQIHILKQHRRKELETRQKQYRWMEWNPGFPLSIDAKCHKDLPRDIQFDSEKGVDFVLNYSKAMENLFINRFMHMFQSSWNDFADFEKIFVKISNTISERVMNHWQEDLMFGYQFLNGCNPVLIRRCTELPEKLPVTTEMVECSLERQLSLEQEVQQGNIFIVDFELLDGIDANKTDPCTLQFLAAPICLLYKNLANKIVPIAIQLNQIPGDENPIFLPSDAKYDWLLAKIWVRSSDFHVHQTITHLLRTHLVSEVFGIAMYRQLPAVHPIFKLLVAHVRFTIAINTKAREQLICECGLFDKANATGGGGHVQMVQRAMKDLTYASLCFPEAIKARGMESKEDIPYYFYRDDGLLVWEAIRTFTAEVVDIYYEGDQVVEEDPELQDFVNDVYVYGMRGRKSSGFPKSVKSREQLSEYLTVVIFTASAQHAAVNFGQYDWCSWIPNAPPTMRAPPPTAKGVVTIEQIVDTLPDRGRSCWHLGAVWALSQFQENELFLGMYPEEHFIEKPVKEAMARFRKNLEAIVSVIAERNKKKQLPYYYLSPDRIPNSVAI
Method: The lipoxygenase inhibition assay on the synthesized compounds was carried out as per the standard reported method. […] The 5-LOX enzyme solution was also prepared at a strength of 10,000 units/mL. The linoleic acid (80 mM) was employed as a substrate in lipoxygenase assay. The buffer (phosphate) was also prepared for the assay having 50 mM strength and a pH of 6.3. The samples of synthesized compounds (250 µL), phosphate buffer (250 µL) and mixture of the enzyme were mixed and incubated for five minutes. Afterwards, the solution of the substrate (0.6 mM, 1000 µL) was mixed with lipoxygenase enzyme mixture with shaking. […] The percent inhibition was calculated as per the standard method. […]
91- 7, GmbH USA). these all were purchased from Sigma Aldrich Germany. Buffer solution
containing (KH2PO4 & K2HPO4), was of best quality with high purity. […]

COX-1 = COX-1 (Homo sapiens, UniProt P23219); assay: Cyclooxygenase (COX-1) inhibition assay; type: biochemical; details: read-out: IC50 ± SEM COX-1
Method: as §1

[2] = DPPH free radical scavenging assay
Method: The protocol of Brand-Williams et al. was used for the DPPH assay with some modifications. DPPH (4 mg) was dissolved in methanol (100 mL) to obtain a mixture of […] 1,1-diphenyl,2-picrylhydrazyl (DPPH). The stock solution of the various synthesized compounds was prepared in methanol with 1 mg/mL concentration. This stock solution was used to prepare different concentrations of test samples ranging within 1000–62.5 μg/mL. The 0.1 mL of each concentration (1000–62.5 μg/mL) was combined with the DPPH (3 mL) solution in methanol. The solution was kept at 23 °C for 15 min incubation, followed by the absorbance measurement deliberated at 517 nm. Gallic acid was used as a standard drug in this assay. The percentage DPPH radical scavenging potential was measured via the formula [44]: % radical scavenging potential=CAbs.−SAbs./CAbs.×100 where CAbs. is the absorbance of the control, and SAbs is the absorbance of test samples/standard.

albino mice = assay: Acute toxicity; type: in vivo; details: highest dose 2000 mg/kg
Excerpt: Before testing our selected compounds for in vivo experiments, we performed the toxicity test as per the protocol. Four groups of animals were labelled, with eight animals in each group. The control group was given normal saline, while other groups were given different concentrations of the selected compounds.

Chain of COX-1 (P23219 24-599): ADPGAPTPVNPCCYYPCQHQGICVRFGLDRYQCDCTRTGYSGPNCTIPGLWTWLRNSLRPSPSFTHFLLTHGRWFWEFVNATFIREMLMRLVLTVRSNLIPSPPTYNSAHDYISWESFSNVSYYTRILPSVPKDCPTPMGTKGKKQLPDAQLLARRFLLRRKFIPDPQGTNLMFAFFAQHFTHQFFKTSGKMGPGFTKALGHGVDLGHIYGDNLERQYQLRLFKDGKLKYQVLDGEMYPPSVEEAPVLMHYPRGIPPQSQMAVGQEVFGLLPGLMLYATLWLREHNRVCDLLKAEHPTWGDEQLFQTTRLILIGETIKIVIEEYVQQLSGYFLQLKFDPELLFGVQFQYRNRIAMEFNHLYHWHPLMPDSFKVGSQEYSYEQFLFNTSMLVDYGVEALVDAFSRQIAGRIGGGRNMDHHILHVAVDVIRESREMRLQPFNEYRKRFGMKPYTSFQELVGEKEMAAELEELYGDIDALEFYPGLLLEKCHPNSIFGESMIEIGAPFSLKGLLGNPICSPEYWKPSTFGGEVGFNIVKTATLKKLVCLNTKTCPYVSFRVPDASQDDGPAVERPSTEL

Row | Structure (SMILES) | IC50 [1] | SI (calculated selectivity index) (COX-2) | IC50 (COX-2) | IC50 (5-LOX) | IC50 (COX-1) | IC50 [2] | melting point | Acute toxicity observation (albino mice)
1 | CC(C)c1ccc(C[C@](C)(C=O)[C@@H](C[N+](=O)[O-])c2ccccc2)cc1 (mixture of isomers) [FM1, (2S,3S)-2-(4-isopropylbenzyl)-2-methyl-4-nitro-3-phenylbutanal] | 62.9 µM | 12.2 | 1.21 ± 0.03 µM | 1.81 ± 0.11 µM | 14.8 ± 1.19 µM | 54.4 µM | 149 to 151 °C | –
2 | Cc1ccc([C@H](C[N+](=O)[O-])[C@@](C)(C=O)Cc2ccc(C(C)C)cc2)cc1 (mixture of isomers) [FM3, (2S,3S)-2-(4-isopropylbenzyl)-2-methyl-4-nitro-3-(p-tolyl)butanal] | 11.5 µM | 3.6 | 3.53 ± 0.18 µM | 9.69 ± 0.99 µM | 12.8 ± 1.08 µM | 15.1 µM | 135 to 137 °C | –
3 | COc1ccc([C@H](C[N+](=O)[O-])[C@@](C)(C=O)Cc2ccc(C(C)C)cc2)cc1 (mixture of isomers) [FM4, (2S,3S)-2-(4-isopropylbenzyl)-3-(4-methoxyphenyl)-2-methyl-4-nitrobutanal] | 25.8 µM | 42.8 | 0.74 ± 0.03 µM | 0.98 ± 0.12 µM | 31.7 ± 1.37 µM | 21.1 µM | – | very mild seizures and disturbances in breath (temporary)
4 | COc1ccccc1[C@H](C[N+](=O)[O-])[C@@](C)(C=O)Cc1ccc(C(C)C)cc1 (mixture of isomers) [FM5, (2S,3S)-2-(4-isopropylbenzyl)-3-(2-methoxyphenyl)-2-methyl-4-nitrobutanal] | 191 µM | 7.2 | 8.15 ± 0.98 µM | 16.3 ± 1.02 µM | 58.4 ± 2.08 µM | 184 µM | 129 to 131 °C | –
5 | CC(C)c1ccc(C[C@](C)(C(=O)O)[C@@H](C[N+](=O)[O-])c2ccccc2)cc1 [FM7, (2S,3S)-2-(4-isopropylbenzyl)-2-methyl-4-nitro-3-phenylbutanoic Acid] | 24.7 µM | 23.2 | 1.09 ± 0.01 µM | 0.73 ± 0.05 µM | 25.3 ± 1.22 µM | 22.5 µM | 243 to 245 °C | –
6 | CC(C)c1ccc(C[C@](C)(C(=O)O)[C@@H](C[N+](=O)[O-])c2ccc(Cl)cc2)cc1 [FM8] | – | – | – | – | – | – | 259 to 261 °C | –
7 | COc1ccccc1[C@H](C[N+](=O)[O-])[C@](C)(Cc1ccc(C(C)C)cc1)C(=O)O [FM11] | – | – | – | – | – | – | 211 to 213 °C | –

Second part, led by results:

Row | IC50 [1] | SI (calculated selectivity index) (COX-2) | IC50 (COX-2) | IC50 (5-LOX) | IC50 (COX-1) | IC50 [2] | melting point | Structure (SMILES) | Acute toxicity observation (albino mice)
8 | 42 µM | 15.1 | 2.51 ± 0.24 µM | 0.64 ± 0.01 µM | 38 ± 1.65 µM | 55.4 µM | 173 to 175 °C | CC(C)c1ccc(C[C@](C)(C=O)[C@@H](C[N+](=O)[O-])c2ccc(Cl)cc2)cc1 (mixture of isomers) [FM2, (2S,3S)-3-(4-chlorophenyl)-2-(4-isopropylbenzyl)-2-methyl-4-nitrobutanal] | –
9 | 37.7 µM | 11.6 | 4.72 ± 0.08 µM | 6.17 ± 0.23 µM | 54.8 ± 1.95 µM | 49.7 µM | 161 to 163 °C | CC(C)c1ccc(C[C@](C)(C=O)[C@@H](C[N+](=O)[O-])c2ccco2)cc1 (mixture of isomers) [FM6, (2S,3S)-3-(furan-2-yl)-2-(4-isopropylbenzyl)-2-methyl-4-nitrobutanal] | –
10 | – | – | – | – | – | – | 233 to 235 °C | Cc1ccc([C@H](C[N+](=O)[O-])[C@](C)(Cc2ccc(C(C)C)cc2)C(=O)O)cc1 [FM9] | –
11 | 3.23 µM | – | – | – | – | 9.02 µM | – | O=C(O)c1cc(O)c(O)c(O)c1 [Gallic acid, reference compound] | –
